Test results as given in the NIST ThermoML archive (doi:10.1016/j.jct.2015.07.025).
Where “and” joins values, the source holds several entries; their conditions need not be identical. Equal entries are not always repeated. ± gives the expanded uncertainty stated by the source.

Key:
[1] = Molar enthalpy of transition or fusion; settings: Crystal; DSC
[2] = for vapor or sublimation pressure: Liquid, Transpiration method; for Normal melting temperature: Crystal, DTA

Cc1ccc(C#N)cc1 [4-cyanotoluene]
Settings | Molar enthalpy of transition or fusion [kcal/mol] | Normal melting temperature [°C]
[1] | 3.85 ± 0.12 | –
[2] | – | 26.2 ± 1.1

[2]
Settings | vapor or sublimation pressure
302.1 K | 0.03154 ± 0.002 kPa
303.2 K | 0.03377 ± 0.0022 kPa
305.3 K | 0.04002 ± 0.0026 kPa
309.1 K | 0.05079 ± 0.0032 kPa
311 K | 0.06008 ± 0.0038 kPa
313.1 K | 0.06747 ± 0.0043 kPa
315 K | 0.07922 ± 0.005 kPa
319.1 K | 0.09993 ± 0.0063 kPa
320.9 K | 0.1159 ± 0.0073 kPa
322.9 K | 0.1303 ± 0.0081 kPa
325 K | 0.1463 ± 0.0092 kPa and 0.1458 ± 0.0092 kPa
329 K | 0.1856 ± 0.012 kPa
331 K | 0.2118 ± 0.013 kPa
332.8 K | 0.2374 ± 0.015 kPa
334.9 K | 0.2629 ± 0.016 kPa

Cc1cccc(C#N)c1 [3-cyanotoluene]
[2]
Settings | vapor or sublimation pressure [kPa]
279.8 K | 0.0072 ± 0.0005
281.3 K | 0.00829 ± 0.00057
283.7 K | 0.01033 ± 0.00069
285.7 K | 0.01206 ± 0.00081
288.3 K | 0.01513 ± 0.001
290.3 K | 0.01801 ± 0.0012
292.4 K | 0.02154 ± 0.0014
294.3 K | 0.02516 ± 0.0016
297.2 K | 0.03103 ± 0.002
300 K | 0.03937 ± 0.0025
302.1 K | 0.04606 ± 0.0029
304.1 K | 0.05317 ± 0.0034
307.7 K | 0.06905 ± 0.0044
309.2 K | 0.0755 ± 0.0048
310.1 K | 0.08291 ± 0.0052
312 K | 0.09159 ± 0.0058
313.7 K | 0.1049 ± 0.0066

Cc1ccccc1C#N [2-methylbenzonitrile]
[2]
Settings | vapor or sublimation pressure
287.4 K | 0.02064 ± 0.0014 kPa
289.2 K | 0.02389 ± 0.0015 kPa
290.3 K | 0.02582 ± 0.0017 kPa
292.4 K | 0.03043 ± 0.002 kPa
296.3 K | 0.04075 ± 0.0026 kPa
298.1 K | 0.0467 ± 0.003 kPa
300.7 K | 0.05531 ± 0.0035 kPa
305.1 K | 0.07684 ± 0.0049 kPa
308.2 K | 0.0961 ± 0.0061 kPa
311 K | 0.1162 ± 0.0073 kPa
312 K | 0.1257 ± 0.0079 kPa and 0.1248 ± 0.0079 kPa
314.9 K | 0.1494 ± 0.0094 kPa
316.1 K | 0.1625 ± 0.01 kPa
318.1 K | 0.1865 ± 0.012 kPa
321.1 K | 0.2216 ± 0.014 kPa
322.2 K | 0.2425 ± 0.015 kPa
324.2 K | 0.2729 ± 0.017 kPa

Cc1cc(C)c(C#N)c(C)c1 [2,4,6-trimethylbenzonitrile]
Settings | Molar enthalpy of transition or fusion [kcal/mol] | Normal melting temperature [°C]
[1] | 3.7 ± 0.12 | –
[2] | – | 52.4 ± 1.1
